In patent US20210255193A1, “LYSINE REACTIVE PROBES AND USES THEREOF” (The Scripps Research Institute, priority 2017, published 2021):

How the values were obtained:
Assay in all cases: competitive isoTOP-ABPP
[1] = molecular target: T1, RPS10 40S ribosomal protein S10 (Homo sapiens, UniProt P46783); type: binding; settings: for isoTOP-ABPP ratio (R) at liganded lysine P46783_K139: 50 uM, in vitro, sol, 231
T1 construct: isoTOP-ABPP experiments performed in cell lysates (in vitro); endogenous in cells; host or cells: soluble proteome of human cancer cell lines (MDA-MB-231; Ramos and Jurkat also prepared)
Method in brief: (§1)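 Fragments at 50 μM (activated esters) or 100 μM (guanidinylating agents) were incubated with 0.5 ml lysate before probe labeling. After 0.1 mM STP-alkyne for 1 h, samples were clicked to isotopically distinct TEV tags, and R taken as DMSO-over-compound MS1 peak-area ratio.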

[2] = molecular target: T2, SLC25A5 ADP/ATP translocase 2 (Homo sapiens, UniProt P05141); type: binding; settings: for isoTOP-ABPP ratio (R) at liganded lysine P05141_K23: 50 uM, in vitro, sol, 231
T2 construct: isoTOP-ABPP experiments performed in cell lysates (in vitro); endogenous in cells; host or cells: MDA-MB-231 soluble lysate
T2 sequence (P05141 1-298): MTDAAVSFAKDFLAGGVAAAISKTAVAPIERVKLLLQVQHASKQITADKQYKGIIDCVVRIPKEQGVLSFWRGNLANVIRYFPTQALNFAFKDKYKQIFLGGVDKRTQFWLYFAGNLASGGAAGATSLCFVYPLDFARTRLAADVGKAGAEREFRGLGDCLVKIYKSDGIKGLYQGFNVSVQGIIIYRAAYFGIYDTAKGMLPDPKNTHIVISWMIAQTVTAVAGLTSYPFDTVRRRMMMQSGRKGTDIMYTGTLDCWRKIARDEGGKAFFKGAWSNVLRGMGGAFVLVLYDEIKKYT
Method in brief: as §1

[3] = molecular target: T3, GABARAPL2 Gamma-aminobutyric acid receptor-associated protei (Homo sapiens, UniProt P60520); type: binding; settings: for isoTOP-ABPP ratio (R) at liganded lysine P60520_K46: 50 uM, in vitro, sol, 231
T3 construct: isoTOP-ABPP experiments performed in cell lysates (in vitro); endogenous in cells; host or cells: soluble proteome of human cancer cell lines (MDA-MB-231, Ramos, Jurkat)
Method in brief: as §1

[4] = molecular target: T4, NLN Neurolysin, mitochondrial (Homo sapiens, UniProt Q9BYT8); type: binding; settings: for isoTOP-ABPP ratio (R) at liganded lysine Q9BYT8_K253: 50 uM, in vitro, sol, 231
T4 construct: isoTOP-ABPP experiments performed in cell lysates (in vitro); endogenous in cells; host or cells: soluble proteome of human cancer cell lines (MDA-MB-231; Ramos and Jurkat also prepared)
Method in brief: as §1

[5] = molecular target: T5, NONO Non-POU domain-containing octamer-binding protein (Homo sapiens, UniProt Q15233); settings: for isoTOP-ABPP ratio (R) at liganded lysine Q15233_K467: 50 uM, in vitro, sol, 231
T5 construct: isoTOP-ABPP experiments performed in cell lysates (in vitro); endogenous in cells; host or cells: soluble proteome of human cancer cell lines (MDA-MB-231; Ramos and Jurkat also prepared)
T5 sequence (Q15233 1-471): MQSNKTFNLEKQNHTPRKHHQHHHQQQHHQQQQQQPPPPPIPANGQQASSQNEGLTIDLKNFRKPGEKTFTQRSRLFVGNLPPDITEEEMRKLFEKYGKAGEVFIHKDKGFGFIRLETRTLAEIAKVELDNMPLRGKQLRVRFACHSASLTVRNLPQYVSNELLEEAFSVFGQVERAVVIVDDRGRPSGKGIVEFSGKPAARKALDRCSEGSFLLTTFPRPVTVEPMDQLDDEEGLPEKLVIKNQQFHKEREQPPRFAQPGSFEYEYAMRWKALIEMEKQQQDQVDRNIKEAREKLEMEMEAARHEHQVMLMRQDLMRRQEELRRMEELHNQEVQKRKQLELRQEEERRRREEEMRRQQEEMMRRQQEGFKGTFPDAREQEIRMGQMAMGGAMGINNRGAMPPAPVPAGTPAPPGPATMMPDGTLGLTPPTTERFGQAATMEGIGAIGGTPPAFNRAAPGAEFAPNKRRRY
Method in brief: as §1

T4 sequence (Q9BYT8 38-704): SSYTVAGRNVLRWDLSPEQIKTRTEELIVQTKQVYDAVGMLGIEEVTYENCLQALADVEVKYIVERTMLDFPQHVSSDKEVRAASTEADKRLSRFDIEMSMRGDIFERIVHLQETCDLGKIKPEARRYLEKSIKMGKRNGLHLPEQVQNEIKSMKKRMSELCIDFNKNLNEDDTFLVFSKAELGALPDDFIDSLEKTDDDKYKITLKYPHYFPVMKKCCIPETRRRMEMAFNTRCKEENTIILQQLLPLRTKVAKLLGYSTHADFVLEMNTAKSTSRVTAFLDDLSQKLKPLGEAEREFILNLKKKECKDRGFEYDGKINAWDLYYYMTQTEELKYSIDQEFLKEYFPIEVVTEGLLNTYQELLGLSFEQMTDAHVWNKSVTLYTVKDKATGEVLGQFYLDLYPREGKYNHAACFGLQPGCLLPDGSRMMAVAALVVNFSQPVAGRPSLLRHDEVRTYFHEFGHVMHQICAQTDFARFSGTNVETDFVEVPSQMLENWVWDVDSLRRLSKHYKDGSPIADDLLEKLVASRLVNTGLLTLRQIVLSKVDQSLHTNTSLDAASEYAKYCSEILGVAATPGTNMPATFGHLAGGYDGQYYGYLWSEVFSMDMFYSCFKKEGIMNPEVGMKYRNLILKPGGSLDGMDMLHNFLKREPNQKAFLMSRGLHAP
T3 sequence (P60520 1-116 limits assumed): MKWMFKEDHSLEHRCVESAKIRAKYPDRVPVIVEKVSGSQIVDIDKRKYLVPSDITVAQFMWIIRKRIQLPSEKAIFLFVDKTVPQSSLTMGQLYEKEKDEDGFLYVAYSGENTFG

Row | isoTOP-ABPP ratio, lysine P60520_K46 ([3]; 50 uM_231_sol_in vitro) | Compound | isoTOP-ABPP ratio (R) at liganded lysine P05141_K23 [2] | isoTOP-ABPP ratio (R) at liganded lysine Q9BYT8_K253 [4] | isoTOP-ABPP ratio, lysine P05141_K23 ([2]; 50 uM_231_sol_in vitro) | also measured
1 |  | O=C(CCc1coc2cc(F)ccc2c1=O)Oc1ccc([N+](=O)[O-])cc1[N+](=O)[O-] [fragment 36, 2,4-Dinitrophenyl 3-(7-fluoro-4-oxo-4H-chromen-3-yl)propanoate] | 1.1 |  |  | isoTOP-ABPP ratio (R) at liganded lysine P46783_K139 [1]: 0.7
2 |  | O=C(CC12CC3CC(CC(C3)C1)C2)Oc1ccc([N+](=O)[O-])cc1[N+](=O)[O-] [fragment 38, 2,4-Dinitrophenyl 2-(adamantan-1-yl)acetate] | 1.1 | 0.8 |  | isoTOP-ABPP ratio (R) at liganded lysine P60520_K46 [3]: 1.0; isoTOP-ABPP ratio (R) at liganded lysine P46783_K139 [1]: 1.0
3 |  | O=C(Oc1ccc([N+](=O)[O-])cc1[N+](=O)[O-])c1ccc(Oc2ccccc2)cc1 [fragment 39, 2,4-Dinitrophenyl 4-phenoxybenzoate] | 0.9 | 1.1 |  | isoTOP-ABPP ratio (R) at liganded lysine P60520_K46 [3]: 0.8
4 |  | O=C(Oc1ccc([N+](=O)[O-])cc1[N+](=O)[O-])c1ccccc1Nc1cccc(C(F)(F)F)c1 [fragment 40, 2,4-Dinitrophenyl 2-((3-(trifluoromethyl)phenyl)amino)benzoate] | 0.8 | 0.9 |  | isoTOP-ABPP ratio (R) at liganded lysine Q15233_K467 [5]: 4.1
5 |  | CC(C)(C)OC(=O)NCCCC(=O)Oc1ccc([N+](=O)[O-])cc1[N+](=O)[O-] [fragment 41, 2,4-Dinitrophenyl 4-((tert-butoxycarbonyl)amino)butanoate] | 1.0 | 1.3 |  | isoTOP-ABPP ratio (R) at liganded lysine P60520_K46 [3]: 1.0
6 |  | CC(=O)Oc1ccc([N+](=O)[O-])cc1[N+](=O)[O-] [fragment 43, 2,4-Dinitrophenyl acetate] | 0.9 | 0.8 |  | isoTOP-ABPP ratio (R) at liganded lysine Q15233_K467 [5]: 3.1
7 |  | O=C(ON1C(=O)CCC1=O)c1cc(C(F)(F)F)cc(C(F)(F)F)c1 [fragment 46, 3,5-Bis(trifluoromethyl)benzoic acid NHS ester] |  |  | 0.9 | isoTOP-ABPP ratio, lysine Q9BYT8_K253 ([4]; 50 uM_231_sol_in vitro): 1.5; isoTOP-ABPP ratio, lysine Q15233_K467 ([5]; 50 uM_231_sol_in vitro): 0.4
8 | 1.0 | O=C(Oc1c(F)c(F)c(C(F)(F)F)c(F)c1F)c1cc(C(F)(F)F)cc(C(F)(F)F)c1 [fragment 47, 2,3,5,6-Tetrafluoro-4-(trifluoromethyl)phenyl 3,5-bis(trifluoromethyl)benzoate] |  |  | 1.8 | 
9 | 0.9 | O=C(Oc1c(F)c(F)cc(F)c1F)c1cc(C(F)(F)F)cc(C(F)(F)F)c1 [fragment 48, 2,3,5,6-Tetrafluorophenyl 3,5-bis(trifluoromethyl)benzoate] |  |  | 1.2 | isoTOP-ABPP ratio, lysine P46783_K139 ([1]; 50 uM_231_sol_in vitro): 0.8
10 |  | COC(=O)NC(=NC(=O)OCC1c2ccccc2-c2ccccc21)n1cccn1 [fragment 49, N-Methoxycarbonyl-N′-9-fluorenylmethoxycarbonyl-pyrazole-1-carboxamidine] |  |  |  | isoTOP-ABPP ratio, lysine P60520_K46 ([3]; 100 uM_231_sol_in vitro): 1.9; isoTOP-ABPP ratio, lysine P46783_K139 ([1]; 100 uM_231_sol_in vitro): 20.0; isoTOP-ABPP ratio, lysine Q15233_K467 ([5]; 100 uM_231_sol_in vitro): 4.9
11 |  | CC(C)(C)OC(=O)N=C(NC(=O)OC(C)(C)C)n1cccn1 [fragment 50, reference compound] |  |  |  | isoTOP-ABPP ratio, lysine P60520_K46 ([3]; 100 uM_231_sol_in vitro): 20.0; isoTOP-ABPP ratio, lysine Q9BYT8_K253 ([4]; 100 uM_231_sol_in vitro): 1.2; isoTOP-ABPP ratio, lysine P46783_K139 ([1]; 100 uM_231_sol_in vitro): 1.1; isoTOP-ABPP ratio, lysine P05141_K23 ([2]; 100 uM_231_sol_in vitro): 12.6
12 | 1.0 | NC(=O)c1cc(C(F)(F)F)cc(C(F)(F)F)c1 [fragment 51, reference compound] |  |  |  | 

Row | Compound | isoTOP-ABPP ratio, lysine P60520_K46 ([3]; 50 uM_231_sol_in vitro) | isoTOP-ABPP ratio (R) at liganded lysine P05141_K23 [2] | isoTOP-ABPP ratio (R) at liganded lysine Q9BYT8_K253 [4] | isoTOP-ABPP ratio, lysine P05141_K23 ([2]; 50 uM_231_sol_in vitro) | also measured
13 | O=C(CCc1ccc2c(c1)OCO2)Oc1ccc([N+](=O)[O-])cc1[N+](=O)[O-] [fragment 45, 2,4-Dinitrophenyl 3-(benzo[d][1,3]dioxol-5-yl)propanoate] | 1.0 |  |  | 1.2 | isoTOP-ABPP ratio, lysine Q9BYT8_K253 ([4]; 50 uM_231_sol_in vitro): 1.3
